Where a name gives a salt, the structure may show the parent alone.
Molecular target: T1, 5-Lipoxigenase (Homo sapiens, UniProt P09917)
T1 construct: durch Ultraschallbehandlung aufgeschlossen; Größere Zellbestandteile wurden bei 100 000 g abzentrifugiert, wobei 5-Lipoxigenase im Überstand verblieb; endogenous in cells; sonicated; 100 000 g supernatant
T1 sequence (P09917 1-674): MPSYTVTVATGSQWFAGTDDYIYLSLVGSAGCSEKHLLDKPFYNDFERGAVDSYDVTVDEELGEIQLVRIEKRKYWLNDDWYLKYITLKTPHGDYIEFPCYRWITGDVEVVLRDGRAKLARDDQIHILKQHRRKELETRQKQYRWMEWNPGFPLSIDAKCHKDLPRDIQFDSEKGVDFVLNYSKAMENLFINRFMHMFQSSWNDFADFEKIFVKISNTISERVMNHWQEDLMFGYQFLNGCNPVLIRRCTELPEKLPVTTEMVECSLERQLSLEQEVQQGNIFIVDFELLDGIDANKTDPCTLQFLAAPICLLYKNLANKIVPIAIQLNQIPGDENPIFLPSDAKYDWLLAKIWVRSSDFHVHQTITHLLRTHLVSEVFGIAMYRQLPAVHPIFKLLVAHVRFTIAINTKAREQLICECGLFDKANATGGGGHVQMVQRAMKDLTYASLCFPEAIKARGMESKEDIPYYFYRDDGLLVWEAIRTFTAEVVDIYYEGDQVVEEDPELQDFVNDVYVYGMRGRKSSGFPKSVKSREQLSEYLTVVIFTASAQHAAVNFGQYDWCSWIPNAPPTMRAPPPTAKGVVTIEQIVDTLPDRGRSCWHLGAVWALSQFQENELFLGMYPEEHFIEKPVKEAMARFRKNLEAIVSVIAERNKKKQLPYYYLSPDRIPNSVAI
Assay: 5-lipoxygenase inhibition in vitro (supernatant of differentiated leukaemia cells, leukotrienes quantified by HPLC)
Assay type: biochemical, menschlichen
Conditions: 100 µg raw material as is per ml supernatant; 30 s preincubation at 37° C, 10 min reaction with arachidonic acid; activity without test substance = 100 %; solvent per substance (Ethanol, Wasser or DMSO)
Text: Die 5-Lipoxigenase wurde aus menschlichen Leukämie-Zelllinien durch Zugabe von Dimethylsulfoxid (DMSO), TGF-β1 (transforming growth factor β1) und Dihydroxyvitamin D3 differenziert und dabei zugleich die 5-Lipoxigenase induziert. Nach 4 Tagen im Differenzierungsmedium wurden die Zellen geerntet, in einem Glucose-haltigen PBS-Puffer aufgenommen und durch Ultraschallbehandlung aufgeschlossen. Größere Zellbestandteile wurden bei 100 000 g abzentrifugiert, wobei 5-Lipoxigenase im Überstand verblieb.
Die Bestimmung der 5-Lipoxigenase-Inhibitionswirkung erfolgte gemäß Werz et al., Naunyn-Schmiedeberg's Arch. Pharmacol., 1997, Vol. 456, 441 - 445.
Dem Überstand aus der 5-Lipoxigenase-Herstellung wurden Adenosintriphosphat (ATP) und die zu testenden Rohstoffe zugesetzt. Im vorliegenden Falle wurden 100 µg Rohstoff, so wie er ist, pro Milliliter Überstand eingesetzt. Als Lösemittel wurden je nach Substanz Wasser, Ethanol, DMSO oder Chloroform verwendet.
Die Ansätze wurden für 30 Sekunden bei 37° C vorinkubiert. Anschließend wurde die 5-Lipoxigenase-Reaktion durch Zusatz von Arachidonsäure gestartet. Nach 10 Minuten Reaktionszeit wurde die Reaktion durch Zugabe von Methanol gestoppt. Die durch die Einwirkung der 5-Lipoxigenase auf Arachidonsäure produzierten Leukotriene wurden mittels HPLC quantifiziert. Die Aktivität von 5-Lipoxigenase ohne Zugabe von Testsubstanz wurde zu 100 % gesetzt und die Aktivität der 5-Lipoxigenase mit Hemmstoff darauf bezogen. In Tabelle 1 ist die Hemmwirkung der einzelnen Testsubstanzen in % angegeben.

| Hemmwirkung | Structure (SMILES) |
| --- | --- |
| 90,3% | CC(C)=CCCC(C)(O)C1CC=C(C)CC1 (stereo not drawn) [α-Bisabolol] |
| 40,4% | O=C(O)CCCCC1CCSS1 (stereo not drawn) [α-Liponsäure, reference compound] |

| Structure (SMILES) | Hemmwirkung |
| --- | --- |
| CC[C@H](CC[C@@H](C)[C@H]1CC[C@H]2[C@@H]3CC=C4C[C@@H](OS(=O)(=O)O)CC[C@]4(C)[C@H]3CC[C@]12C)C(C)C [Phytocohesine, Sodium Beta-Sitosteryl Sulfate] | 62,8% |
